# According to patent US20180188224A1, “METHOD FOR CONSTRUCTING A SENSORY SPACE” (CENTRE SCIENTIFIQUE ET TECHNIQUE DU BATIMENT (CSTB), priority 2015, published 2018):
# How the values were obtained:
# [1] = tested on: four non-smoking volunteers (2 men and 2 women); assay: Taste intensity score, 11-point scale (0 not intense to 10 very intense); format: in vivo, human; conditions: averaged over 4 subjects, 6 repetitions each
# Experimental: In this test, four non-smoking volunteers (2 men and 2 women) were chosen from 12 people for their performance in taste recognition. Their mean age was 32 years, ranging from 24 to 40 years. […] These four people were trained for several months to recognize and detect the four basic tastes, and also regarding the procedures of sensory and physiological analysis.
# The four basic tastes (sweet, salty, sour and bitter) were used. The solutions were prepared with citric acid for the sour taste, caffeine for the bitter taste, sodium chloride for the salty taste and sucrose for the sweet taste (all purchased from Sigma Aldrich, France) in Evian water. Evian water was also used as control and blank. Each taste was prepared with the four concentrations mentioned in table 1.
# The amount of solution to be tested was standardized at 10 ml. In order to impregnate the whole of the oral cavity, the subjects kept the solution in their mouth for 5 s before swallowing it.
# The sessions were individual and the subjects were asked not to eat or drink anything for at least 1 h before the test. They arrived 15 min before the start of the session in order to acclimatize to the environmental conditions, in particular the temperature of the room (kept constant at 23° C.) and to be resting seated on a comfortable chair. The 16 solutions for testing and two additional samples of water containing solely Evian water, added to the references, were presented monadically following a test order determined from a “balanced incomplete block design”. During a session, 9 samples out of 18 were presented to minimize sensory fatigue. In addition, a sample of Evian was always tested as a “blank” sample in order to avoid the first-order effect (Lawless, H. T. & Heymann, H., 2010, Sensory evaluation of food: Principles and practices. Springer, New York) and was excluded from the analysis. A light signal was sent to give the instruction to test the sample. When the disturbance to the nervous system returned to its baseline level (after approximately 1 min), a second light signal indicated to the subjects that they should complete a questionnaire regarding the stimulus tested previously. The first part of the questionnaire was linked to the identification of the taste (i.e. determining the quality of the taste); the subjects had to choose between five labels: sweet, salty, sour, bitter or neutral. They then had to assign a taste intensity score on an 11-point scale (from 0 “not intense” (i.e. taste of Evian only) to 10 “very intense”) and finally to give a hedonic score on an 11-point scale (from 0 “very unpleasant” to 10 “very pleasant”, 5 being “neutral”).
# This procedure was repeated for each of the 9 stimuli. A session lasted approximately 45 min including a debriefing at the end of the test to ensure understanding of the sense of the signal variations. The experiment was repeated 12 times per subject, meaning that the data are composed of 6 data sets per subject and per product and 12 data sets for the Evian product per subject. Thus, the database consists of 432 samples.
# The effect of the taste on the hedonic and intensity scores was analyzed by an analysis of variance (ANOVA) including the product effect, the subject effect and the product-subject interaction. The subject effect was fixed because there were only 4 subjects and the results could only be applied to a particular schema. The differences were considered to be significant at a level of 0.05.
# [2] = tested on: four non-smoking volunteers (2 men and 2 women); assay: Hedonic score, 11-point scale (0 very unpleasant to 10 very pleasant, 5 neutral); format: in vivo, human; conditions: concentration 4 (highest)
# [3] = tested on: four non-smoking volunteers (2 men and 2 women); assay: Taste identification questionnaire, trained panel (count of 6 repetitions per subject in which the stimulus was given each taste label; level of recognition %); format: in vivo, human; conditions: for Level of Recognition %: Bitter / Level of Recognition %: Neutral / Level of Recognition %: Salty / Level of Recognition %: Sour / Level of Recognition %: Sweet: four subjects
# [4] = cited from earlier work
structure (smiles),measurement,setting,value
"O=C(O)CC(O)(CC(=O)O)C(=O)O [Citric acid, citric acid]",intensity score,[1]; concentration 1,1.2±1.5
same,intensity score,[1]; concentration 2,1.0±1.0
same,intensity score,[1]; concentration 4,8.4±1.2
same,hedonic score,[2],3.3±2.4
same,Individual recognition score: Bitter,"[3]; Subject 1, dilution 1",1
same,Individual recognition score: Neutral,"[3]; Subject 1, dilution 1",3
same,Individual recognition score: Salty,"[3]; Subject 1, dilution 1",0
same,Individual recognition score: Sour,"[3]; Subject 1, dilution 1",1
same,Individual recognition score: Sweet,"[3]; Subject 1, dilution 1",1
same,Individual recognition score: Bitter,"[3]; Subject 1, dilution 2",1
same,Individual recognition score: Neutral,"[3]; Subject 1, dilution 2",4
same,Individual recognition score: Salty,"[3]; Subject 1, dilution 2",0
same,Individual recognition score: Sour,"[3]; Subject 1, dilution 2",1
same,Individual recognition score: Sweet,"[3]; Subject 1, dilution 2",0
same,Individual recognition score: Bitter,"[3]; Subject 1, dilution 3",0
same,Individual recognition score: Neutral,"[3]; Subject 1, dilution 3",0
same,Individual recognition score: Salty,"[3]; Subject 1, dilution 3",0
same,Individual recognition score: Sour,"[3]; Subject 1, dilution 3",6
same,Individual recognition score: Sweet,"[3]; Subject 1, dilution 3",0
same,Individual recognition score: Bitter,"[3]; Subject 1, dilution 4",0
same,Individual recognition score: Neutral,"[3]; Subject 1, dilution 4",0
same,Individual recognition score: Salty,"[3]; Subject 1, dilution 4",0
same,Individual recognition score: Sour,"[3]; Subject 1, dilution 4",6
same,Individual recognition score: Sweet,"[3]; Subject 1, dilution 4",0
same,Individual recognition score: Bitter,"[3]; Subject 2, dilution 1",0
same,Individual recognition score: Neutral,"[3]; Subject 2, dilution 1",5
same,Individual recognition score: Salty,"[3]; Subject 2, dilution 1",0
same,Individual recognition score: Sour,"[3]; Subject 2, dilution 1",0
same,Individual recognition score: Sweet,"[3]; Subject 2, dilution 1",1
same,Individual recognition score: Bitter,"[3]; Subject 2, dilution 2",0
same,Individual recognition score: Neutral,"[3]; Subject 2, dilution 2",3
same,Individual recognition score: Salty,"[3]; Subject 2, dilution 2",0
same,Individual recognition score: Sour,"[3]; Subject 2, dilution 2",2
same,Individual recognition score: Sweet,"[3]; Subject 2, dilution 2",1
same,Individual recognition score: Bitter,"[3]; Subject 2, dilution 3",0
same,Individual recognition score: Neutral,"[3]; Subject 2, dilution 3",0
same,Individual recognition score: Salty,"[3]; Subject 2, dilution 3",0
same,Individual recognition score: Sour,"[3]; Subject 2, dilution 3",6
same,Individual recognition score: Sweet,"[3]; Subject 2, dilution 3",0
same,Individual recognition score: Bitter,"[3]; Subject 2, dilution 4",0
same,Individual recognition score: Neutral,"[3]; Subject 2, dilution 4",0
same,Individual recognition score: Salty,"[3]; Subject 2, dilution 4",0
same,Individual recognition score: Sour,"[3]; Subject 2, dilution 4",6
same,Individual recognition score: Sweet,"[3]; Subject 2, dilution 4",0
same,Individual recognition score: Bitter,"[3]; Subject 3, dilution 1",2
same,Individual recognition score: Neutral,"[3]; Subject 3, dilution 1",3
same,Individual recognition score: Salty,"[3]; Subject 3, dilution 1",0
same,Individual recognition score: Sour,"[3]; Subject 3, dilution 1",1
same,Individual recognition score: Sweet,"[3]; Subject 3, dilution 1",0
same,Individual recognition score: Bitter,"[3]; Subject 3, dilution 2",4
same,Individual recognition score: Neutral,"[3]; Subject 3, dilution 2",1
same,Individual recognition score: Salty,"[3]; Subject 3, dilution 2",0
same,Individual recognition score: Sour,"[3]; Subject 3, dilution 2",1
same,Individual recognition score: Sweet,"[3]; Subject 3, dilution 2",0
same,Individual recognition score: Bitter,"[3]; Subject 3, dilution 3",0
same,Individual recognition score: Neutral,"[3]; Subject 3, dilution 3",0
same,Individual recognition score: Salty,"[3]; Subject 3, dilution 3",0
same,Individual recognition score: Sour,"[3]; Subject 3, dilution 3",6
same,Individual recognition score: Sweet,"[3]; Subject 3, dilution 3",0
same,Individual recognition score: Bitter,"[3]; Subject 3, dilution 4",0
same,Individual recognition score: Neutral,"[3]; Subject 3, dilution 4",0
same,Individual recognition score: Salty,"[3]; Subject 3, dilution 4",0
same,Individual recognition score: Sour,"[3]; Subject 3, dilution 4",6
same,Individual recognition score: Sweet,"[3]; Subject 3, dilution 4",0
same,Individual recognition score: Bitter,"[3]; Subject 4, dilution 1",3
same,Individual recognition score: Neutral,"[3]; Subject 4, dilution 1",2
same,Individual recognition score: Salty,"[3]; Subject 4, dilution 1",0
same,Individual recognition score: Sour,"[3]; Subject 4, dilution 1",1
same,Individual recognition score: Sweet,"[3]; Subject 4, dilution 1",0
same,Individual recognition score: Bitter,"[3]; Subject 4, dilution 2",1
same,Individual recognition score: Neutral,"[3]; Subject 4, dilution 2",1
same,Individual recognition score: Salty,"[3]; Subject 4, dilution 2",0
same,Individual recognition score: Sour,"[3]; Subject 4, dilution 2",4
same,Individual recognition score: Sweet,"[3]; Subject 4, dilution 2",0
same,Individual recognition score: Bitter,"[3]; Subject 4, dilution 3",0
same,Individual recognition score: Neutral,"[3]; Subject 4, dilution 3",0
same,Individual recognition score: Salty,"[3]; Subject 4, dilution 3",0
same,Individual recognition score: Sour,"[3]; Subject 4, dilution 3",6
same,Individual recognition score: Sweet,"[3]; Subject 4, dilution 3",0
same,Individual recognition score: Bitter,"[3]; Subject 4, dilution 4",0
same,Individual recognition score: Neutral,"[3]; Subject 4, dilution 4",0
same,Individual recognition score: Salty,"[3]; Subject 4, dilution 4",0
same,Individual recognition score: Sour,"[3]; Subject 4, dilution 4",6
same,Individual recognition score: Sweet,"[3]; Subject 4, dilution 4",0
same,Level of Recognition %: Bitter,[3]; dilution 1,25%
same,Level of Recognition %: Neutral,[3]; dilution 1,54%
same,Level of Recognition %: Salty,[3]; dilution 1,0%
same,Level of Recognition %: Sour,[3]; dilution 1,13%
same,Level of Recognition %: Sweet,[3]; dilution 1,8%
same,Level of Recognition %: Bitter,[3]; dilution 2,25%
same,Level of Recognition %: Neutral,[3]; dilution 2,38%
same,Level of Recognition %: Salty,[3]; dilution 2,0%
same,Level of Recognition %: Sour,[3]; dilution 2,33%
same,Level of Recognition %: Sweet,[3]; dilution 2,4%
same,Level of Recognition %: Bitter,[3]; dilution 3,0%
same,Level of Recognition %: Neutral,[3]; dilution 3,0%
same,Level of Recognition %: Salty,[3]; dilution 3,0%
same,Level of Recognition %: Sour,[3]; dilution 3,100%
same,Level of Recognition %: Sweet,[3]; dilution 3,0%
same,Level of Recognition %: Bitter,[3]; dilution 4,0%
same,Level of Recognition %: Neutral,[3]; dilution 4,0%
same,Level of Recognition %: Salty,[3]; dilution 4,0%
same,Level of Recognition %: Sour,[3]; dilution 4,100%
same,Level of Recognition %: Sweet,[3]; dilution 4,0%
same,detection threshold concentration of the basic taste,[4]; literature (Purves 2005; Robinson 2005),approximately 2 mmol·l^−1
same,detection threshold,[4]; representative compound of a primary taste,0.384 to 0.5 g/L
